Entries after “also recorded” stand apart in the source; their conditions may differ.
Columns and labels:
Aβ1–42 = target: T1, Aβ1–42 (Homo sapiens, UniProt P05067); assay: Inhibition of Aβ1–42 self-aggregation (ThT fluorescence); format: biochemical; settings: read-out: % Aβ42 Self-Agg Inhib
T1 construct: the Aβ1–42 peptide (Shanghai Royobiotech Co., Ltd., Shanghai, China); purchased Shanghai Royobiotech Co., Ltd
Description: Firstly, the Aβ1–42 peptide (Shanghai Royobiotech Co., Ltd., Shanghai, China) was treated with 1,1,1,3,3,3-hexafluoropropan-2-ol (HFIP) and then dissolved in a CH3CN/Na2CO3 (300 μM)/NaOH (250 μM) (48.3:48.3:4.3, v/v/v) mixture in order to obtain a stable stock solution (500 μM).
Solutions of 1 mg of the assayed compounds in 2 mL of 1:1 (v/v) DMSO/MeOH (0.5 mg/mL) medium were prepared and then properly diluted with phosphate buffer (0.215 M, pH 8.0) to obtain a 120 μM final concentration. The Aβ1–42 self-aggregation inhibition assays were made based on a reported method, involving the fluorescence emission of thioflavin T (ThT). So, Aβ1–42 (40 μM) was incubated at 37 °C for 24 h in phosphate buffer and in the presence or absence of each ligand (40 μM for all compounds but 4AY4 and 4CY1, for which 20 μM was used). Then, […] 5 μM ThT in 50 mM glycine-NaOH (pH 8.5) buffer were added to each sample before transferring the samples to a 96-well microplate. Blank samples were also prepared without Aβ1–42. The ThT fluorescence was measured (446 and 485 nm excitation and emission wavelengths, respectively), and the percent of self-aggregation inhibition was determined by the equation:I% = 100 − (IFi/IF0 × 100) where IFi and IF0 are the fluorescence intensities, in the presence and the absence of the assayed compound, subtracted from the fluorescence intensities due to the respective blanks. The calculated values were obtained as the mean ± SEM of four different experiments conducted in duplicate. Statistical analysis was performed by a one-way analysis of variance (ANOVA) with a significance threshold set at p < 0.05.

[1] = test system: SH-SY5Y human neuroblastoma cell line; assay: Cell viability dose-response screening (MTT); format: cell-based; settings: 24 h
Description: (§1) Cell viability was assessed using the colorimetric MTT (3-(4,5-dimethylthiazol-2-yl)-2,5-diphenyltetrazolium bromide) assay, as previously described.
(§2) The compounds’ solutions (4AY1-6, 4BY1-3, and 4CY1) were prepared in DMSO to create stock solutions at a concentration of 25 mM, which were then stored at −20 °C. A concentration range from 0.5 µM to 20 µM was screened to identify the highest non-toxic dose. The SH-SY5Y human neuroblastoma cell line (ATCC-CRL-2266) was grown in Dulbecco’s modified Eagle’s medium (DMEM) (Thermo Fisher Scientific-Gibco, Waltham, MA, USA) supplemented with 10% heat-inactivated fetal calf serum, 50 U/mL penicillin, and 50 µg/mL streptomycin at 37 °C in a 5% CO2 atmosphere. The cells were seeded at a density of 0.1 × 10^6 cells/mL (when 48-well plates were used) or 0.15 × 10^6 cells/mL (when 24-well plates were used) one day before the experiment commenced. Following the seeding, the cells were treated with the selected concentrations of compounds for 24 h. After treatment, the cells were washed with PBS and incubated with 150 µL (in 48-well plates) or 200 µL (in 24-well plates) of MTT (0.5 mg/mL) for 2 h at 37 °C with 5% CO2. During this incubation, cellular dehydrogenases converted MTT into formazan crystals, which were subsequently dissolved in 150 µL (in 48-well plates) or 200 µL (in 24-well plates) of 0.04 M HCl/isopropanol, and the absorbance was measured at 570 nm.

[2] = target: T2, electric eel acetylcholinesterase (eeAChE) (Electrophorus electricus, UniProt O42275); assay: Acetylcholinesterase inhibition (adapted Ellman's method); format: biochemical; settings: read-out: AChE Inhib IC50
T2 construct: purchased
T2 sequence (O42275 24-633): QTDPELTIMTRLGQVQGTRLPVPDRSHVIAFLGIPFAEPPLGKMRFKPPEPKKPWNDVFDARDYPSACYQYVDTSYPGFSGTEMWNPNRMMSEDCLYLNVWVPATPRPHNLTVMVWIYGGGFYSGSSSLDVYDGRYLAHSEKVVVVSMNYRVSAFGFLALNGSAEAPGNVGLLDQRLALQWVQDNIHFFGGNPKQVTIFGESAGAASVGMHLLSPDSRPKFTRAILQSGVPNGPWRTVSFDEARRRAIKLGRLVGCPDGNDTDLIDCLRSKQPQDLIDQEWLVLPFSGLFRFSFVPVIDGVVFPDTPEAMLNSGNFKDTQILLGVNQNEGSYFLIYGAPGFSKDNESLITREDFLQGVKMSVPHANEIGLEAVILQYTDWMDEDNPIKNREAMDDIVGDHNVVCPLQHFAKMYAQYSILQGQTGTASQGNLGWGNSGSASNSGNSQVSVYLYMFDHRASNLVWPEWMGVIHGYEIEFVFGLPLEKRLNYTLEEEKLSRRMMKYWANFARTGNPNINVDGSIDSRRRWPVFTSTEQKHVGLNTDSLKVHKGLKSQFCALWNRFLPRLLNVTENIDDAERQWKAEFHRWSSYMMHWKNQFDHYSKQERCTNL
Description: (§3) The enzyme inhibition of electric eel acetylcholinesterase (eeAChE) and equine butyrylcholinesterase (eqBChE) was performed according to an adaptation of Elmman’s method. Stock solutions of 1 mg of each compound in 1 mL MeOH were prepared, and adequate dilutions were further made for each ligand. A control measurement (5 replicates without a ligand) and a calibration curve of 5 points with 3 replicates per point were conducted. Each solution included fixed volumes of 4-(2-hydroxyethyl)-1-piperazine-ethanesulfonic acid (HEPES) and cholinesterase (eeAChE or eqBChE), with different volumes of ligand solution. A blank solution containing HEPES and MeOH was also prepared at the same time. After 15 min of reaction, […] (AChI) or butyrylcholine iodide (BChI) and 5,5’-dithiobis-(2-nitrobenzoic acid) (DTNB) were added to both solutions contained in spectrophotometer cuvettes, and the absorbance at 405 nm was recorded for 5 min (time interval = 1 s, slid width = 1 nm). The slope for each calibration point (absorbance versus reaction time) was determined, and the percent inhibition was calculated by using the equation: %Inhibition=100−(vi/v0×100). where vi is the reaction rate (slope) for each point of the calibration with the ligand, and v0 is the initial reaction rate (slope) for the control point (without ligand). Finally, the five-point linear regression (10–50 µL of ligand solution) corresponding to the percentage of enzyme inhibition vs. the compound concentration allowed for the determination of the half maximal inhibitory concentration (IC50, µM) (compound concentration for which enzyme activity is reduced to half). Experiments were performed twice for each ligand. Statistical analysis was performed by a one-way analysis of variance (ANOVA) with a significance threshold set at p < 0.05.

[3] = Free-radical-scavenging assay (DPPH method); settings: for % AA (radical-scavenging activity): compound concentration 100 μM; for EC50: read-out: AA EC50
Description: The percentage of radical-scavenging activity (%AA, antioxidant capacity) of the RIV hybrids was first determined by the 2,2-diphenyl-1-picrylhydrazyl (DPPH) method using a compound concentration of 100 μM. […] Each calibration point was kept 30 min in darkness, and afterwards, the absorbance was measured at 517 nm. The corresponding antioxidant activity (%AA) was calculated using the equation %AA=ADPPH−Aligand/ADPPH×100. From the plot of %AA versus ligand concentration, EC50 was determined. Three independent experiments were performed, and a statistical analysis was conducted by a one-way analysis of variance (ANOVA) with the significance threshold set at p < 0.05.
The RIV hybrids were screened for their radical-scavenging activity by using the DPPH method. These assays were conducted in two stages: first, preliminary analyses were performed for all the compounds to evaluate the percentage of radical-scavenging activity by using a compound concentration of 100 μM. Afterwards, the compounds showing more than 50% antioxidant activity (AA), under those conditions, were further assessed to evaluate the respective EC50 values.

[4] = target: T3, equine butyrylcholinesterase (eqBChE) (Equus caballus, UniProt P81908); assay: Butyrylcholinesterase inhibition (adapted Ellman's method); format: biochemical; settings: for IC50: eqBChE, read-out: BChE Inhib IC50; for SI (selectivity index): SI = IC50 (AChE)/IC50 (BChE)
T3 construct: purchased
T3 sequence (P81908 whole entry): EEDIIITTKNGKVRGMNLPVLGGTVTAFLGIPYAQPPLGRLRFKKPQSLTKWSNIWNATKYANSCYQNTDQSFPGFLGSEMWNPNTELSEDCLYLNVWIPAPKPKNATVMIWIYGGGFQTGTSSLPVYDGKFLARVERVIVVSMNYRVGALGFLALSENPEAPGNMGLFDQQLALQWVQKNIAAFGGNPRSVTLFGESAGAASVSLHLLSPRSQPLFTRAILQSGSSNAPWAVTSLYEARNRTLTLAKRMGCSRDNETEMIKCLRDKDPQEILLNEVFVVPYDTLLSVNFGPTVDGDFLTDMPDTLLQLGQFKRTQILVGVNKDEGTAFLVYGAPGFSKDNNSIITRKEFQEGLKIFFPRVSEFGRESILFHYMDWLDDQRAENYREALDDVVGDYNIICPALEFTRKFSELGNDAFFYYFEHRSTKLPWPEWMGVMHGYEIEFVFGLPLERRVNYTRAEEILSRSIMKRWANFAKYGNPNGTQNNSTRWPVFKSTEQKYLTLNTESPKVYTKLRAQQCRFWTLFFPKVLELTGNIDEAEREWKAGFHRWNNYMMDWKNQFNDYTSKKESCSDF
Description: as §3

[5] = test system: SH-SY5Y human neuroblastoma cell line; assay: Protection against iron/ascorbate-induced toxicity (MTT); format: cell-based; settings: 1 h pre-treatment at highest nontoxic concentration, then 24 h with Fe/Asc
Description: as §1, §2
To evaluate the compounds’ protective effects against toxicity induced by Aβ1–42 or iron/ascorbate, the cells were pre-treated with each compound for one hour before adding Aβ1–42 or iron/ascorbate, followed by an additional 24-h incubation. Aβ1–42 (Bachem, Torrance, CA, USA) was prepared in sterile water to create a 443 µM stock solution and was added to the cells at a final concentration of 1 µM. Ferrous sulfate and L-ascorbic acid (Sigma Chemical Co., St. Louis, MO, USA) were introduced into the medium at final concentrations of 5 mM and 2.5 mM, respectively. […]

T1 sequence (P05067 672-713): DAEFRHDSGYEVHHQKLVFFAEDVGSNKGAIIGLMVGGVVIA

Row | SMILES | inhibition at 40 µM (Aβ1–42) | highest nontoxic concentration [1] | IC50 [2] | % AA (radical-scavenging activity) [3] | IC50 [4] | EC50 [3] | SI (selectivity index) [4] | inhibition at 20 µM (Aβ1–42; 24 h) | rescue of cell viability after iron/ascorbate treatment [5] | highest nontoxic concentration ([1]; dose given for the Aβ1–42 experiments) | highest nontoxic concentration ([1]; dose given for the iron/ascorbate experiments)
1 | CCN(C)C(=O)Oc1cccc(CNC(=O)c2cc(OC)c(O)c(OC)c2)c1 [4BY1, 3-((4-Hydroxy-3,5-dimethoxybenzamido)methyl)phenyl ethyl(methyl)carbamate] | 58 ± 6% | 15 µM | > 200 µM | <50% | 75 ± 0.6 µM | – | – | – | – | – | –
2 | CCN(C)C(=O)Oc1cccc(NC(=O)c2cc(OC)c(O)c(OC)c2)c1 [4AY1, 3-(4-Hydroxy-3,5-dimethoxybenzamido)phenyl ethyl(methyl)carbamate] | 20 ± 2% | 10 µM | > 200 µM | <50% | 31 ± 2 µM | – | – | – | – | – | –
3 | CCN(C)C(=O)Oc1cccc(NC(=O)/C=C/C=C/c2ccc(O)c(O)c2)c1 [4AY6, 3-((2E,4E)-5-(3,4-Dihydroxyphenyl)penta-2,4-dienamido)phenyl ethyl(methyl)carbamate] | 75 ± 7% | 1 µM | 5 ± 1 µM | 93.1 ± 0.8% | 5.7 ± 0.6 µM | 28 ± 0.4 µM | 0.9 | – | – | – | –
4 | CCN(C)C(=O)Oc1cccc(NC(=O)/C=C/c2ccc3c(c2)OCO3)c1 [4AY3, (E)-3-(3-(Benzo[d][1,3]dioxol-5-yl)acrylamido)phenyl ethyl(methyl)carbamate] | 45 ± 4% | 5 µM | 50.5 ± 0.1 µM | <50% | 3.1 ± 0.4 µM | – | 16.3 | – | – | – | –
5 | COc1cc(C(=O)Nc2cccc(OC(=O)N(C)C)c2)cc(OC)c1O [4CY1, 3-(4-Hydroxy-3,5-dimethoxybenzamido)phenyl dimethylcarbamate] | – | 5 µM | > 200 µM | <50% | 68 ± 7 µM | – | – | 31 ± 3% | – | – | –
6 | CCN(C)C(=O)Oc1cccc(CNC(=O)/C=C/c2ccc3c(c2)OCO3)c1 [4BY3, (E)-3-((3-(Benzo[d][1,3]dioxol-5-yl)acrylamido)methyl)phenyl ethyl(methyl)carbamate] | 29 ± 3% | 1 µM | 91 ± 6 µM | <50% | 0.9 ± 0.2 µM | – | 101 | – | – | – | –
7 | COc1cc(/C=C/C(=O)CC(=O)/C=C/c2ccc(O)c(OC)c2)ccc1O [Curcumin, reference compound] | 77 ± 1% | – | – | – | – | – | – | – | – | – | –
8 | CCN(C)C(=O)Oc1cccc(CNC(=O)C2(C)CCc3c(C)c(O)c(C)c(C)c3O2)c1 (stereo not drawn) [4BY2, 3-((6-Hydroxy-2,5,7,8-tetramethylchromane-2-carboxamido)methyl)phenyl ethyl(methyl)carbamate] | 47 ± 3% | 1 µM | 32 ± 2 µM | 93.9 ± 0.4% | 3.7 ± 0.1 µM | 20 ± 0.8 µM | 8.6 | – | capable of rescuing the cell viability; also recorded: significantly improved cell viability | – | –
9 | CCN(C)C(=O)Oc1cccc(NC(=O)/C=C/c2ccc(O)c(O)c2)c1 [4AY5, (E)-3-(3-(3,4-Dihydroxyphenyl)acrylamido)phenyl ethyl(methyl)carbamate] | 82 ± 5% | 0.5 µM | 110 ± 5 µM | 96 ± 2% | 7.2 ± 0.3 µM | 15.7 ± 0.4 µM | 15.3 | – | – | – | –
10 | CCN(C)C(=O)Oc1cccc(NC(=O)C2(C)CCc3c(C)c(O)c(C)c(C)c3O2)c1 (stereo not drawn) [4AY2, 3-(6-Hydroxy-2,5,7,8-tetramethylchromane-2-carboxamido)phenyl ethyl(methyl)carbamate] | 45 ± 4% | – | 69 ± 7 µM | 95 ± 3% | 36 ± 3 µM | 18.1 ± 0.4 µM | 1.9 | – | capable of rescuing the cell viability; also recorded: significantly improved cell viability | 1 µM | 2.5 µM
11 | Cc1c(C)c2c(c(C)c1O)CCC(C)(C(=O)O)O2 (stereo not drawn) [Trolox, 6-hydroxy-2,5,7,8-tetramethylchromane-2-carboxylic acid, reference compound] | – | – | – | – | – | 13.8 ± 0.2 µM | – | – | – | – | –
